Values of other authors in patent publication US9605003B2, “Heterocyclic compounds and uses thereof” (Infinity Pharmaceuticals, Inc., priority 2011, dated 2017).
Counter-ions that a name gives are not always drawn.

Key:
NZB/W model = settings: prophylactic and therapeutic model; cited from earlier work
[1] = tested on: p190 transduced leukemic cells; settings: about 70 mg/kg twice daily; cited from earlier work

For CC(C)C[C@H](NC(=O)[C@H](Cc1ccccc1)NC(=O)c1cnccn1)B(O)O [Bortezimib, bortezomib], the “disease in NZB/W model” value (NZB/W model) is given as “effective at blocking disease”.
For Cc1ccc(NC(=O)c2ccc(CN3CCN(C)CC3)cc2)cc1Nc1nccc(-c2cccnc2)n1 [imatinib, Imatinib Mesylate], the leukemogenesis [1] is given as “delay but not cure leukemogenesis”.
